“And” between values parts separate entries of the source, which are not always exact repeats. Equal entries are not always repeated. Where two headings read alike, the source gives them in different places. Marks after values point to notes of the source that are not given here.
Tests used:
[1] = in vitro; format: in vitro ADME; conditions: human, Caco-2
Experimental: Formula 1 was evaluated for cellular permeability using Caco-2 cell monolayers. Both the apical-to-basolateral (A-B) and basolateral-to-apical (B-A) bidirectional permeability and efflux ratios were evaluated in the assay.

[2] = in vivo; conditions: mice; for half-life: read-out: terminal half-life (converted)
Experimental: Pharmacokinetic studies of MD-354 were performed in mice following 50 mg/kg oral and 5 mg/kg intravenous administration (FIG. 17).
The plasma concentration decreased in a multi-phasic manner to 0.76 ng/mL at 8 hours post-dose.

[3] = format: in vitro ADME; conditions: rat plasma
Experimental: (§1) Formula 1 was stable in both mouse and human plasma, with t90 values greater than 4 h, whereas it was unstable in rat plasma, with a t90 of less than 1 h (t90 should be greater than 4 h in order to be considered stable). Most of the efficacy and safety pharmacology was therefore run in mice.

[4] = test system: human plasma; format: in vitro ADME
Experimental: as §1

[5] = test system: mouse plasma; format: in vitro ADME
Experimental: as §1

[6] = format: in vivo, mice
Experimental: At 4 days, vehicle-treated animals gained approximately 1% body weight, going from 25.24±0.74 g to 25.50±0.64 g. Formula 1 treated animals went from 25.28±1.04 g to 25.82±1.25 g.
Animals treated with Formula 1 at a dose of 10 mg/kg IP for a period of 31 days gained […] body weight (changing from 21.44±0.18 g to 25.49±0.46 g). Vehicle treated animals gained […] body weight (changing from 21.45±0.19 g to 23.97±0.62 g; p=0.07), therefore no significant changes were found.

[7] = test system: Taxol-induced neuropathic pain; test: Taxol-induced neuropathic pain in mice, SC administration; format: in vivo
Experimental: Study outline in brief: Animals were dosed daily with Taxol for a period of 8 consecutive days (Day 0 to Day 7). On study day 8, prior to drug dosing, the decrease in withdrawal force (tactile allodynia) was verified by applying the von Frey test. After assigning the animals to their treatment groups, the animals were treated daily for a period of 5 days with either vehicle or Formula 1 at different doses. Gabapentin at a dose of 150 mg/kg was dosed only on days of testing (day 8 and day 14).
Response to heat stimuli was assessed using the hotplate apparatus set at 50ΥC. […] At baseline prior to Taxol dosing, the animals' response time to heat was 28.10±1.60 sec (vehicle-treated group). […] However, it is interesting to note that the beneficial activity of Formula 1 on heat hyperalgesia was more noticeable on study day 14, following repeated daily dosing of the compound, than on study day 8 following a single dose (Table 6).

[8] = test system: CCI-induced neuropathic pain; test: CCI model in mice, IP route; format: in vivo; conditions: CCl model
Source text: IP route of administration was used for initial proof of principle studies with Formula 1. However, the chosen route of administration in most of the studies conducted with Formula 1 was either SC or PO. A brief protocol outline is provided in each section, for the purpose of understanding the results without elaborating on all the detailed procedures.
Table 7 summarizes the activity of Formula 1 in mice models of neuropathic pain following repeated daily administration using different routes of administration. […] Treatment with Formula 1 show activity without CNS effect.

[9] = format: in vivo, mice; conditions: Brain, SC, Mean
[10] = oral, two additional sets of data, listed as 354

SMILES: CC(C)(C)C(=O)O[C@@H]1[C@@H]2[C@H]3C[C@H](C[C@@H]1N3Cc1ccccn1)CN2C(=O)CC(F)(F)F (relative stereo) [Formula 1, (2S*,3S*,3aS*,6R*,7aR*)-1-(pyridin-2-ylmethyl)-4-(3,3,3-trifluoropropanoyl)octahydro-1H-2,6-methanopyrrolo[3,2-b]pyridin-3-yl pivalate]
- efflux ratio [1]: 10.4
- Papp A→B ([1]; apical-to-basolateral): 6.6 ×10⁻⁶ cm/s
- Papp B→A ([1]; basolateral-to-apical): 68.3 ×10⁻⁶ cm/s
- plasma concentration at 8 hours post-dose ([2]; intravenous 5 mg/kg): 6.74 ng/mL
- plasma concentration at 8 hours post-dose ([2]; oral 50 mg/kg): 0.76 ng/mL
- time to peak plasma concentration ([2]; oral 50 mg/kg): ≤ 5 min
- time to peak plasma concentration ([2]; oral, two additional sets of data): ≤ 5 min
- oral bioavailability [2, 10]: 14.7%
- peak plasma concentration [2, 10]: 3157 ng/mL and 3001 ng/mL
- plasma concentration at 8 hours post-administration [2, 10]: 8.4 ng/mL and 11.4 ng/mL
- terminal half-life [2, 10]: 75 min
- half-life ([2]; mouse, in vivo, iv, 5 mg/kg, intravenous 5 mg/kg, excluding the 8 h time point): 21 min
- bioavailability ([2]; mouse, in vivo, oral 50 mg/kg vs intravenous 5 mg/kg, read-out: absolute oral bioavailability): 10.5%
- half-life ([2]; mouse, in vivo, po, 50 mg/kg, oral 50 mg/kg): 51 min
- bioavailability ([2]; mouse, in vivo, po, oral, two additional sets of data, read-out: oral bioavailability): 14.1%
- half-life ([2]; mouse, in vivo, po, oral, two additional sets of data): 71.4 min
- C0 ([2]; mouse, in vivo, intravenous 5 mg/kg, read-out: initial plasma concentration (C0)): 7940 ng/mL
- Vd ([2]; mouse, in vivo, intravenous 5 mg/kg, read-out: steady-state volume of distribution (Vss)): 1.08 L/kg
- clearance ([2]; mouse, in vivo, intravenous 5 mg/kg, read-out: systemic plasma clearance (CLp)): 46.1 mL/min/kg
- Cmax ([2]; mouse, in vivo, oral 50 mg/kg, read-out: peak plasma concentration (Cmax)): 1930 ng/mL
- t90 [3]: less than 1 h
- t90 [4]: greater than 4 h
- t90 [5]: greater than 4 h
- body weight at end ([6]; 10 mg/kg IP for 31 days): 25.49 ± 0.46 g
- body weight at start ([6]; 10 mg/kg IP for 31 days): 21.44 ± 0.18 g
- body weight gained ([6]; 10 mg/kg IP for 31 days): 15.64%
- body weight at 4 days ([6]; 4-day observation): 25.82 ± 1.25 g
- body weight at start ([6]; 4-day observation): 25.28 ± 1.04 g
- effect on body weight gain ([6]; naïve mice, dosing for 31 days): did not affect body weight gain
- response time to heat (50° C.), Mean ([7]; SC 1 mg/kg, Day 0 Pre-Taxol): 28.8 s
- response time to heat (50° C.), Mean ([7]; SC 1 mg/kg, Day 8, 1 h): 11.9 s
- response time to heat (50° C.), Mean ([7]; SC 1 mg/kg, Day 8, 2 h): 22.8* sec
- response time to heat (50° C.), Mean ([7]; SC 1 mg/kg, Day 8, 4 h): 18.9* sec
- response time to heat (50° C.), Mean ([7]; SC 1 mg/kg, Day 8, 6 h): 18.5* sec
- response time to heat (50° C.), Mean ([7]; SC 1 mg/kg, Day 8 Pre-dosing): 11.4 s
- response time to heat (50° C.), Mean ([7]; SC 1 mg/kg, Day 14, 1 h): 14.9* sec
- response time to heat (50° C.), Mean ([7]; SC 1 mg/kg, Day 14, 2 h): 24.6* sec
- response time to heat (50° C.), Mean ([7]; SC 1 mg/kg, Day 14, 4 h): 24.2* sec
- response time to heat (50° C.), Mean ([7]; SC 1 mg/kg, Day 14, 6 h): 22.0* sec
- response time to heat (50° C.), Mean ([7]; SC 1 mg/kg, Day 14 Pre-dosing): 15.8* sec
- response time to heat (50° C.), Mean ([7]; SC 1 mg/kg, Day 17, No dosing): 12.4 s
- response time to heat (50° C.), Mean ([7]; SC 3 mg/kg, Day 0 Pre-Taxol): 28.6 s
- response time to heat (50° C.), Mean ([7]; SC 3 mg/kg, Day 8, 1 h): 15.7 s
- response time to heat (50° C.), Mean ([7]; SC 3 mg/kg, Day 8, 2 h): 19.4 s
- response time to heat (50° C.), Mean ([7]; SC 3 mg/kg, Day 8, 4 h): 14.8 s
- response time to heat (50° C.), Mean ([7]; SC 3 mg/kg, Day 8, 6 h): 14.1 s
- response time to heat (50° C.), Mean ([7]; SC 3 mg/kg, Day 8 Pre-dosing): 12.2 s
- response time to heat (50° C.), Mean ([7]; SC 3 mg/kg, Day 14, 1 h): 18.4* sec
- response time to heat (50° C.), Mean ([7]; SC 3 mg/kg, Day 14, 2 h): 24.8* sec
- response time to heat (50° C.), Mean ([7]; SC 3 mg/kg, Day 14, 4 h): 23.6* sec
- response time to heat (50° C.), Mean ([7]; SC 3 mg/kg, Day 14, 6 h): 20.6* sec
- response time to heat (50° C.), Mean ([7]; SC 3 mg/kg, Day 14 Pre-dosing): 19.7 s
- response time to heat (50° C.), Mean ([7]; SC 3 mg/kg, Day 17, No dosing): 12.2 s
- response time to heat (50° C.), Mean ([7]; SC 10 mg/kg, Day 0 Pre-Taxol): 28.5 s
- response time to heat (50° C.), Mean ([7]; SC 10 mg/kg, Day 8, 1 h): 15.7 s
- response time to heat (50° C.), Mean ([7]; SC 10 mg/kg, Day 8, 2 h): 17.8* sec
- response time to heat (50° C.), Mean ([7]; SC 10 mg/kg, Day 8, 4 h): 15.8 s
- response time to heat (50° C.), Mean ([7]; SC 10 mg/kg, Day 8, 6 h): 14.3 s
- response time to heat (50° C.), Mean ([7]; SC 10 mg/kg, Day 8 Pre-dosing): 11.2 s
- response time to heat (50° C.), Mean ([7]; SC 10 mg/kg, Day 14, 1 h): 18.5* sec
- response time to heat (50° C.), Mean ([7]; SC 10 mg/kg, Day 14, 2 h): 18.7* sec
- response time to heat (50° C.), Mean ([7]; SC 10 mg/kg, Day 14, 4 h): 19.3* sec
- response time to heat (50° C.), Mean ([7]; SC 10 mg/kg, Day 14, 6 h): 15.5* sec
- response time to heat (50° C.), Mean ([7]; SC 10 mg/kg, Day 14 Pre-dosing): 14.5 s
- response time to heat (50° C.), Mean ([7]; SC 10 mg/kg, Day 17, No dosing): 10.4 s
- response time to heat (hotplate 50° C.) ([7]; Taxol mice, SC, 10 mg/kg, 3 mg/kg and 1 mg/kg): active in increasing the response time
- analgesic activity (withdrawal force, von Frey) ([7]; Taxol mice, SC, dose as low as 1 mg/kg): profound analgesic activity
- Dose of maximum activity ([7]; Taxol model, SC, mice): 1 mg/kg
- Duration of activity at maximum effect ([7]; Taxol model, SC, mice): 3 days
- Level of activity (% of maximum effect-baseline) ([7]; Taxol model, SC, mice): 100%
- Dose of maximum activity [8]: 30 mg/kg
- Duration of activity at maximum effect [8]: >4 H
- Peak of activity (T) [8]: 2 H
- Level of activity (% of maximum effect-baseline) ([8]; repeated daily administration): 33%
- HL_Lambda_z [9]: 0.39 h

Source: patent publication US10351566B2, “Therapeutic compounds for pain and synthesis thereof” (priority 2015, dated 2019)
